Source: patent US8173808B2, “Substituted naphthalenyl-pyrimidine compounds” (ArQule, Inc., priority 2009, dated 2012)

Key:
[1] = tested on: MDA-MB-231; experiment: MTS assay, MDA-MB-231; assay type: cell-based; settings: Homo sapiens, 72 hours, 1 Percent FBS
Procedure: (§1) Cells were maintained at 37° C., 5% CO2 in DMEM media supplemented with 1% fetal bovine serum, penicillin/streptomycin and fungizone (Invitrogen). Cells were seeded into 96-well tissue culture plates at 3000 per well and cultured at 37° C. for 18 hours. Test compounds were dissolved and diluted to 300× in DMSO then diluted 1:40 in DMEM. Cells were incubated with test compounds for 72 hours followed by incubation with tetrazolium compound (3-(4,5-dimethylthiazol-2-yl)-5-(3-carboxymethoxyphenyl)-2-(4-sulfophenyl)-2H-tetrazolium, inner salt; MTS) and the electron coupling reagent, phenazine methosulfate (PMS) for 4 hours. […] The ability of compounds to inhibit cell growth in this assay is correlated with the reduction of dehydrogenase enzyme activity found in metabolically active cells. The measurement of the absorbance of the formazan was assessed using a Victor (Perkin Elmer) microplate reader at 492 nm. The calculated IC50 value is the concentration of the test compound that causes a 50% decrease in the absorbance.

[2] = tested on: DLD-1; experiment: MTS assay, DLD-1; assay type: cell-based; settings: Homo sapiens, 72 hours, 1 Percent FBS
Procedure: as §1

SMILES	inhibition at 10 µM [1]	inhibition at 10 µM [2]
COc1ccc2cc(-c3ccnc(NC4CCN(C)CC4)n3)cc(N3CCOCC3)c2c1 [Compound 7, 4-(6-methoxy-4-morpholin-4-yl-2-naphthyl)-N-(1-methylpiperidin-4-yl)pyrimidin-2-amine]	62%	68%
COc1ccc2cc(-c3ccnc(NCCN(C)C)n3)cc(N3CCOCC3)c2c1 [Compound 8, N′-[4-(6-methoxy-4-morpholin-4-yl-2-naphthyl)pyrimidin-2-yl]-N,N-dimethylethane-1,2-diamine]	45%	
COc1ccc2cc(-c3ccnc(NCc4ccc(OC)c(OC)c4)n3)cc(N3CCOCC3)c2c1 [Compound 9, N-(3,4-dimethoxybenzyl)-4-(6-methoxy-4-morpholin-4-yl-2-naphthyl)pyrimidin-2-amine]	82%	99%
COc1ccc2cc(-c3ccnc(NCc4cccc(C(F)(F)F)c4)n3)cc(N3CCOCC3)c2c1 [Compound 13, 4-(6-methoxy-4-morpholin-4-yl-2-naphthyl)-N-[3-(trifluoromethyl)benzyl]pyrimidin-2-amine]		98%
CCN1CCCC(Nc2nccc(-c3cc(N4CCOCC4)c4cc(OC)ccc4c3)n2)C1 (stereo not shown) [Compound 14, N-(1-ethylpiperidin-3-yl)-4-(6-methoxy-4-morpholin-4-yl-2-naphthyl)pyrimidin-2-amine]	99%	98%
COc1ccc2cc(-c3ccnc(NCCc4ccccc4OC)n3)cc(N3CCOCC3)c2c1 [Compound 15, 4-(6-methoxy-4-morpholin-4-yl-2-naphthyl)-N-[2-(2-methoxyphenyl)ethyl]pyrimidin-2-amine]		90%
COc1ccc2cc(-c3ccnc(NCc4cncn4C)n3)cc(N3CCOCC3)c2c1 [Compound 16, 4-(6-methoxy-4-morpholin-4-yl-2-naphthyl)-N-[(1-methyl-1H-imidazol-5-yl)methyl]pyrimidin-2-amine]	96%	98%
COc1ccc2cc(-c3ccnc(NCCc4cccc(OC)c4OC)n3)cc(N3CCOCC3)c2c1 [Compound 17, N-[2-(2,3-dimethoxyphenyl)ethyl]-4-(6-methoxy-4-morpholin-4-yl-2-naphthyl)pyrimidin-2-amine]		31%
COc1ccc2cc(-c3ccnc(NCCc4ccc(OC)c(OC)c4)n3)cc(N3CCOCC3)c2c1 [Compound 18, N-[2-(3,4-dimethoxyphenyl)ethyl]-4-(6-methoxy-4-morpholin-4-yl-2-naphthyl)pyrimidin-2-amine]	31%	88%
COc1ccc2cc(-c3ccnc(NCCc4ccccn4)n3)cc(N3CCOCC3)c2c1 [Compound 19, 4-(6-methoxy-4-morpholin-4-yl-2-naphthyl)-N-(2-pyridin-2-ylethyl)pyrimidin-2-amine]		30%
COc1ccc2cc(-c3ccnc(NCc4ccccc4C)n3)cc(N3CCOCC3)c2c1 [Compound 20, 4-(6-methoxy-4-morpholin-4-yl-2-naphthyl)-N-(2-methylbenzyl)pyrimidin-2-amine]		66%
COc1ccc2cc(-c3ccnc(NCCc4cccnc4)n3)cc(N3CCOCC3)c2c1 [Compound 21, 4-(6-methoxy-4-morpholin-4-yl-2-naphthyl)-N-(2-pyridin-3-ylethyl)pyrimidin-2-amine]	99%	97%
COCCNc1nccc(-c2cc(N3CCOCC3)c3cc(OC)ccc3c2)n1 [Compound 23, N-(2-methoxyethyl)-4-(6-methoxy-4-morpholin-4-yl-2-naphthyl)pyrimidin-2-amine]	91%	98%
COc1ccc2cc(-c3ccnc(NC4CCN(Cc5ccccc5)CC4)n3)cc(N3CCOCC3)c2c1 [Compound 24, N-(1-benzylpiperidin-4-yl)-4-(6-methoxy-4-morpholin-4-yl-2-naphthyl)pyrimidin-2-amine]	95%	97%
COc1ccc2cc(-c3ccnc(NCc4ccccn4)n3)cc(N3CCOCC3)c2c1 [Compound 25, 4-(6-methoxy-4-morpholin-4-yl-2-naphthyl)-N-(pyridin-2-ylmethyl)pyrimidin-2-amine]	74%	82%
COc1ccc2cc(-c3ccnc(NC4CC(C)(C)N(C)C(C)(C)C4)n3)cc(N3CCOCC3)c2c1 [Compound 26, 4-(6-methoxy-4-morpholin-4-yl-2-naphthyl)-N-(1,2,2,6,6-pentamethylpiperidin-4-yl)pyrimidin-2-amine]	98%	92%
COc1cc(CCNc2nccc(-c3cc(N4CCOCC4)c4cc(OC)ccc4c3)n2)cc(OC)c1 [Compound 27, N-[2-(3,5-dimethoxyphenyl)ethyl]-4-(6-methoxy-4-morpholin-4-yl-2-naphthyl)pyrimidin-2-amine]		87%

SMILES	inhibition at 10 µM [1]	inhibition at 10 µM [2]
COc1ccc(CNc2nccc(-c3cc(N4CCOCC4)c4cc(OC)ccc4c3)n2)cc1 [Compound 28, N-(4-methoxybenzyl)-4-(6-methoxy-4-morpholin-4-yl-2-naphthyl)pyrimidin-2-amine]	99%	98%
COc1ccc2cc(-c3ccnc(NCCN4CCCC4)n3)cc(N3CCOCC3)c2c1 [Compound 29, 4-(6-methoxy-4-morpholin-4-yl-2-naphthyl)-N-(2-pyrrolidin-1-ylethyl)pyrimidin-2-amine]	76%	81%
COc1ccc2cc(-c3ccnc(NCC(C)(C)CN(C)C)n3)cc(N3CCOCC3)c2c1 [Compound 30, N′-[4-(6-methoxy-4-morpholin-4-yl-2-naphthyl)pyrimidin-2-yl]-N,N,2,2-tetramethylpropane-1,3-diamine]	78%	63%
CNc1nccc(-c2cc(NC(=O)CN3CCN(c4ccc(C(F)(F)F)cn4)CC3)c3cc(OC)ccc3c2)n1 [Compound 55, N-{7-methoxy-3-[2-(methylamino)pyrimidin-4-yl]-1-naphthyl}-2-{4-[5-(trifluoromethyl)pyridin-2-yl]piperazin-1-yl}acetamide]	65%	
CNc1nccc(-c2cc(NC(=O)CNc3ccncc3)c3cc(OC)ccc3c2)n1 [Compound 56, N-{7-methoxy-3-[2-(methylamino)pyrimidin-4-yl]-1-naphthyl}-N~2~-pyridin-4-ylglycinamide]	50%	
CNc1nccc(-c2cc(NC(=O)CN3CCN(Cc4ccc(Cl)cc4)CC3)c3cc(OC)ccc3c2)n1 [Compound 66, 2-[4-(4-chlorobenzyl)piperazin-1-yl]-N-{7-methoxy-3-[2-(methylamino)pyrimidin-4-yl]-1-naphthyl}acetamide]		69%
CNc1nccc(-c2cc(NC(=O)CNCCCN3CCN(C)CC3)c3cc(OC)ccc3c2)n1 [Compound 69, N-{7-methoxy-3-[2-(methylamino)pyrimidin-4-yl]-1-naphthyl}-N~2~-[3-(4-methylpiperazin-1-yl)propyl]glycinamide]	40%	
CNc1nccc(-c2cc(NC(=O)CN3CCN(c4ccncc4)CC3)c3cc(OC)ccc3c2)n1 [Compound 70, N-{7-methoxy-3-[2-(methylamino)pyrimidin-4-yl]-1-naphthyl}-2-(4-pyridin-4-ylpiperazin-1-yl)acetamide]	37%	
CNc1nccc(-c2cc(NC(=O)CN3CCN(CCCN4CCOCC4)CC3)c3cc(OC)ccc3c2)n1 [Compound 77, N-{7-methoxy-3-[2-(methylamino)pyrimidin-4-yl]-1-naphthyl}-2-[4-(3-morpholin-4-ylpropyl)piperazin-1-yl]acetamide]	41%	
COc1ccc2cc(-c3ccnc(NCc4ccc(OC)c(OC)c4)n3)cc(NC(=O)OC(C)(C)C)c2c1 [Compound 87, tert-butyl (3-{2-[(3,4-dimethoxybenzyl)amino]pyrimidin-4-yl}-7-methoxy-1-naphthyl)carbamate]		45%
COc1ccc2cc(-c3ccnc(NCc4cccc(C(F)(F)F)c4)n3)cc(NC(=O)OC(C)(C)C)c2c1 [Compound 90, tert-butyl [7-methoxy-3-(2-{[3-(trifluoromethyl)benzyl]amino}pyrimidin-4-yl)-1-naphthyl]carbamate]	43%	
COc1ccc2cc(-c3ccnc(NCCc4ccc(OC)c(OC)c4)n3)cc(NC(=O)OC(C)(C)C)c2c1 [Compound 95, tert-butyl [3-(2-{[2-(3,4-dimethoxyphenyl)ethyl]amino}pyrimidin-4-yl)-7-methoxy-1-naphthyl]carbamate]	39%	
COc1ccc2cc(-c3ccnc(NCc4ccccn4)n3)cc(NC(=O)OC(C)(C)C)c2c1 [Compound 102, tert-butyl (7-methoxy-3-{2-[(pyridin-2-ylmethyl)amino]pyrimidin-4-yl}-1-naphthyl)carbamate]		43%
CNc1nccc(-c2cc(NC3CCN(c4cc(N)ncn4)CC3)c3cc(OC)ccc3c2)n1 [Compound 156, 4-(4-{[1-(6-aminopyrimidin-4-yl)piperidin-4-yl]amino}-6-methoxy-2-naphthyl)-N-methylpyrimidin-2-amine]		34%
CNc1nccc(-c2cc(NC3CCN(c4ncnc5scc(C)c45)CC3)c3cc(OC)ccc3c2)n1 [Compound 160, 4-(6-methoxy-4-{[1-(5-methylthieno[2,3-d]pyrimidin-4-yl)piperidin-4-yl]amino}-2-naphthyl)-N-methylpyrimidin-2-amine]		50%
CNc1nccc(-c2cc(NC3CCN(c4cc(Cl)nc(C)n4)CC3)c3cc(OC)ccc3c2)n1 [Compound 162, 4-(4-{[1-(6-chloro-2-methylpyrimidin-4-yl)piperidin-4-yl]amino}-6-methoxy-2-naphthyl)-N-methylpyrimidin-2-amine]		42%
